Measurements: ChEMBL document CHEMBL1687876, “Quercetin reduces neutrophil recruitment induced by CXCL8, LTB4, and fMLP: inhibition of actin polymerization” (J Nat Prod, 2011)
Calls of active or inactive are those of the source.

How the values were obtained:
[1] = test system: Mus musculus; assay: Inhibition of CXCL5-induced neutrophil recruitment in Swiss mouse at 300 mg/kg, sc administered pre-inflammatory stimulus after 6 hrs by Newbauer chamber using Romanowsky stain; assay type: functional, organism-based; set-up: dose 300 mg/kg
[2] = test system: Neutrophil; assay: Antiinflammatory activity in human neutrophil assessed as inhibition of fMLP-induced neutrophil chemoattraction 300 to 1000 nM after 2 hrs by Boyden chamber v; assay type: functional, cell-based
[3] = test system: Neutrophil; assay: Inhibition of LTB4-induced actin polymerization in human neutrophil at 100 nM after 30 mins by DAPI staining based immunofluorescence; assay type: functional, cell-based
[4] = test system: Neutrophil; assay: Antiinflammatory activity in human neutrophil assessed as inhibition of LTB4-induced neutrophil chemoattraction 30 nM after 2 hrs by Boyden chamber v; assay type: functional, cell-based
[5] = test system: Mus musculus; assay: Inhibition of fMLP-induced neutrophil recruitment in Swiss mouse at 100 mg/kg, sc administered pre-inflammatory stimulus after 6 hrs by Newbauer chamber using Romanowsky stain; assay type: functional, organism-based; set-up: dose 100 mg/kg
[6] = test system: Mus musculus; assay: Inhibition of LTB4-induced neutrophil recruitment in Swiss mouse at 100 mg/kg, sc administered pre-inflammatory stimulus after 6 hrs by Newbauer chamber using Romanowsky stain; assay type: functional, organism-based; set-up: dose 100 mg/kg
[7] = test system: Neutrophil; assay: Inhibition of FLPR1 protein expression in human neutrophil at 100 nM after 30 mins by flow cytometry; assay type: functional, cell-based
[8] = test system: Neutrophil; assay: Antiinflammatory activity in human neutrophil assessed as inhibition of fMLP-induced neutrophil chemoattraction 10 nM after 2 hrs by Boyden chamber v; assay type: functional, cell-based
[9] = test system: Mus musculus; assay: Inhibition of CXCL1-induced neutrophil recruitment in Swiss mouse at 30 mg/kg, sc administered pre-inflammatory stimulus after 6 hrs by Newbauer chamber using Romanowsky stain; assay type: functional, organism-based; set-up: dose 30 mg/kg
[10] = test system: Mus musculus; assay: Inhibition of LTB4-induced neutrophil recruitment in Swiss mouse at 300 mg/kg, sc administered pre-inflammatory stimulus after 6 hrs by Newbauer chamber using Romanowsky stain; assay type: functional, organism-based; set-up: dose 300 mg/kg
[11] = test system: Neutrophil; assay: Antiinflammatory activity in human neutrophil assessed as inhibition of LTB4-induced neutrophil chemoattraction 300 to 1000 nM after 2 hrs by Boyden chamber v; assay type: functional, cell-based
[12] = test system: Neutrophil; assay: Antiinflammatory activity in human neutrophil assessed as inhibition of fMLP-induced neutrophil chemoattraction 30 nM after 2 hrs by Boyden chamber v; assay type: functional, cell-based
[13] = test system: Neutrophil; assay: Inhibition of CXCR2 protein expression in human neutrophil at 100 nM after 30 mins by flow cytometry; assay type: functional, cell-based
[14] = test system: Neutrophil; assay: Antiinflammatory activity in human neutrophil assessed as inhibition of CXCL8-induced neutrophil chemoattraction 30 nM after 2 hrs by Boyden chamber v; assay type: functional, cell-based
[15] = test system: Mus musculus; assay: Inhibition of CXCL1-induced neutrophil recruitment in Swiss mouse at 100 mg/kg, sc administered pre-inflammatory stimulus after 6 hrs by Newbauer chamber using Romanowsky stain; assay type: functional, organism-based; set-up: dose 100 mg/kg
[16] = test system: Neutrophil; assay: Inhibition of CXCR1 protein expression in human neutrophil at 100 nM after 30 mins by flow cytometry; assay type: functional, cell-based
[17] = test system: Neutrophil; assay: Antiinflammatory activity in human neutrophil assessed as inhibition of CXCL8-induced neutrophil chemoattraction 300 to 1000 nM after 2 hrs by Boyden chamber v; assay type: functional, cell-based
[18] = test system: Neutrophil; assay: Antiinflammatory activity in human neutrophil assessed as inhibition of CXCL8-induced neutrophil chemoattraction 10 nM after 2 hrs by Boyden chamber v; assay type: functional, cell-based
[19] = test system: Neutrophil; assay: Inhibition of BLT1 protein expression in human neutrophil at 100 nM after 30 mins by flow cytometry; assay type: functional, cell-based
[20] = test system: Neutrophil; assay: Antiinflammatory activity in human neutrophil assessed as inhibition of fMLP-induced neutrophil chemoattraction 100 nM after 2 hrs by Boyden chamber v; assay type: functional, cell-based
[21] = test system: Mus musculus; assay: Inhibition of fMLP-induced neutrophil recruitment in Swiss mouse at 300 mg/kg, sc administered pre-inflammatory stimulus after 6 hrs by Newbauer chamber using Romanowsky stain; assay type: functional, organism-based; set-up: dose 300 mg/kg
[22] = test system: Neutrophil; assay: Antiinflammatory activity in human neutrophil assessed as inhibition of LTB4-induced neutrophil chemoattraction 100 nM after 2 hrs by Boyden chamber v; assay type: functional, cell-based
[23] = test system: Mus musculus; assay: Inhibition of LTB4-induced neutrophil recruitment in Swiss mouse at 30 mg/kg, sc administered pre-inflammatory stimulus after 6 hrs by Newbauer chamber using Romanowsky stain; assay type: functional, organism-based; set-up: dose 30 mg/kg
[24] = test system: Neutrophil; assay: Antiinflammatory activity in human neutrophil assessed as inhibition of LTB4-induced neutrophil chemoattraction 10 nM after 2 hrs by Boyden chamber v; assay type: functional, cell-based
[25] = test system: Neutrophil; assay: Antiinflammatory activity in human neutrophil assessed as inhibition of CXCL8-induced neutrophil chemoattraction 100 nM after 2 hrs by Boyden chamber v; assay type: functional, cell-based
[26] = test system: Mus musculus; assay: Inhibition of CXCL5-induced neutrophil recruitment in Swiss mouse at 30 mg/kg, sc administered pre-inflammatory stimulus after 6 hrs by Newbauer chamber using Romanowsky stain; assay type: functional, organism-based; set-up: dose 30 mg/kg
[27] = test system: Mus musculus; assay: Inhibition of CXCL5-induced neutrophil recruitment in Swiss mouse at 100 mg/kg, sc administered pre-inflammatory stimulus after 6 hrs by Newbauer chamber using Romanowsky stain; assay type: functional, organism-based; set-up: dose 100 mg/kg
[28] = test system: Mus musculus; assay: Inhibition of CXCL1-induced neutrophil recruitment in Swiss mouse at 300 mg/kg, sc administered pre-inflammatory stimulus after 6 hrs by Newbauer chamber using Romanowsky stain; assay type: functional, organism-based; set-up: dose 300 mg/kg
[29] = test system: Neutrophil; assay: Inhibition of CXCL8-induced actin polymerization in human neutrophil at 100 nM after 30 mins by DAPI staining based immunofluorescence; assay type: functional, cell-based
[30] = test system: Mus musculus; assay: Inhibition of fMLP-induced neutrophil recruitment in Swiss mouse at 30 mg/kg, sc administered pre-inflammatory stimulus after 6 hrs by Newbauer chamber using Romanowsky stain; assay type: functional, organism-based; set-up: dose 30 mg/kg
[31] = test system: Neutrophil; assay: Inhibition of fMLP-induced actin polymerization in human neutrophil at 100 nM after 30 mins by DAPI staining based immunofluorescence; assay type: functional, cell-based

Measured: inhibition

O=c1c(O)c(-c2ccc(O)c(O)c2)oc2cc(O)cc(O)c12
inactive: [7] | [9] | [13] | [16] | [19] | [23] | [26]
active: all other assays above
